The values below come from patent US20120157471A1, “BENZIMIDAZOLE DERIVATIVES” (PFIZER INC., priority 2009, published 2012).

Assay [1] addresses T1, human Smo (amino acids 181-787) (Homo sapiens, UniProt Q99835).
T1 construct: expressed in transfected cells; membrane preparation
Kind of assay: Smo radioligand competition binding assay (displacement of 3H-PF-03451358 from HEK293 membranes). The settings on record: for inhibition at 0.05 µM: 0.05 μM test compound, displacement of 3H-PF-03451358, read-out: SMO % inh. @ 0.05 μM; for pIC50: radioligand competition binding. In short, it runs like this: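 Membranes (40 μg protein/well) from HEK293 expressing murine Igk-leader-fused Smo 181-787 incubated 2 h at room temperature with 3 nM 3H-PF-03451358 in Tris pH 7.5/NaCl/MgCl2/EDTA/BSA buffer; filter-bound counts by scintillation. Nonspecific binding with 30 μM cold PF-03451358; IC50 from four-parameter fit of % inhibition.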
A general note: In a radioligand displacement assay an active substance lowers the binding of a labelled ligand.

A further assay has as its system Gli-Luc/MEF cells (Smo). Briefly: Gli-Luc/MEF assay (Shh-stimulated luciferase reporter under the Gli response element). The class given is cell-based, mouse. The settings on record: Mus musculus, MEF, 48 h. A digest of the protocol: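 Mouse Gli-Luc/MEF cells dosed with compound (3-fold series, […]) plus 2 μg/mL recombinant mouse Shh, then incubated 48 h at 37° C, 5% CO2. Bright-Glo luminescence read; IC50 calculated from inhibition of Shh-stimulated luciferase.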
In general terms: Reporter assays use an easily measured gene product as a stand-in for the process of interest.

pIC50: −log10 of the molar value.

T1 sequence (Q99835 181-787): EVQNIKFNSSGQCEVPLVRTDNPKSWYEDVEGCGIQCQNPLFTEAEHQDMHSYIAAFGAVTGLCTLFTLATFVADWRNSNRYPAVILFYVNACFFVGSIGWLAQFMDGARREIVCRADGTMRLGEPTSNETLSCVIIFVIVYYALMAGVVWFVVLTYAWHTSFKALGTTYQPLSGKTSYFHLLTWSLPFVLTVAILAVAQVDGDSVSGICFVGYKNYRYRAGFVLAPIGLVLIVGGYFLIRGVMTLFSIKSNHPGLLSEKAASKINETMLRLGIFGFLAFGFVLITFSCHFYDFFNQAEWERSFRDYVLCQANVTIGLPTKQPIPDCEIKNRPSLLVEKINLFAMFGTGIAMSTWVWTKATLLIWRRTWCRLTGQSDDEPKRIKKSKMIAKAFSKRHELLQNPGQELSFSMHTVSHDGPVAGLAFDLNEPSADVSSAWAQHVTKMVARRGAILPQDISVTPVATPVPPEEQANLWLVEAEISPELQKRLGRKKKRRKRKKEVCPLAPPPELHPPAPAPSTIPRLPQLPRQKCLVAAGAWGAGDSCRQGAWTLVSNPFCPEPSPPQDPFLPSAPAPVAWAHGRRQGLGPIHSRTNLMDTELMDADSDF

Broadly, the pIC50 is the negative decadic logarithm of the IC50, by convention in mol/L. Low readings indicate a high IC50, high ones a low IC50. With `Cn1c(-c2cc(N3CC(c4ccncn4)C3)ncc2Cl)nc2ccccc21` [Example A-125, 2-[5-chloro-2-(3-pyrimidin-4-ylazetidin-1-yl)pyridin-4-yl]-1-methyl-1H-benzimidazole], in assay [1], the inhibition at 0.05 µM stood at 57%. This molecule also had a pIC50 in the assay with Gli-Luc/MEF cells (Smo) of 6.87.

On to `Cn1c(-c2cc(N3C[C@@H](O)[C@H](O)C3)ncc2Cl)nc2ccccc21` [Example A-127, (3R,4R)-1-[5-chloro-4-(1-methyl-1H-benzimidazol-2-yl)pyridin-2-yl]pyrrolidine-3,4-diol], for which, in assay [1], the inhibition at 0.05 µM was 57%. In the assay on Gli-Luc/MEF cells (Smo), this molecule showed a pIC50 of 6.89.

Turning to `Cn1c(-c2cc(N3CCC(O)(c4cncnc4)C3)ncc2Cl)nc2ccccc21` (centres unmarked) [Example A-128, 1-[5-chloro-4-(1-methyl-1H-benzimidazol-2-yl)pyridin-2-yl]-3-pyrimidin-5-ylpyrrolidin-3-ol], in assay [1], the inhibition at 0.05 µM stood at 54%. The same molecule gave a pIC50 in the assay on Gli-Luc/MEF cells (Smo) of 7.10.

`Cn1c(-c2cc(N3C[C@@H](O)[C@@H](O)C3)ncc2Cl)nc2ccccc21` [Example A-129, (3R,4S)-1-[5-chloro-4-(1-methyl-1H-benzimidazol-2-yl)pyridin-2-yl]pyrrolidine-3,4-diol]: the inhibition at 0.05 µM in assay [1] was found to be 53%. The pIC50 in the assay with Gli-Luc/MEF cells (Smo) is 6.98.

In the case of `Cn1c(-c2cc(N3CCCN(C4=NCCC(=O)N4)CC3)ncc2Cl)nc2ccccc21` [Example A-130, 2-{4-[5-chloro-4-(1-methyl-1H-benzimidazol-2-yl)pyridin-2-yl]-1,4-diazepan-1-yl}-5,6-dihydropyrimidin-4(3H)-one], the inhibition at 0.05 µM in assay [1] came to 53%. The pIC50 in the assay with Gli-Luc/MEF cells (Smo) is 6.89.

As for `Cn1c(-c2cc(N3CC(c4ncccn4)C3)ncc2Cl)nc2ccccc21` [Example A-131, 2-[5-chloro-2-(3-pyrimidin-2-ylazetidin-1-yl)pyridin-4-yl]-1-methyl-1H-benzimidazole], the inhibition at 0.05 µM in assay [1] stood at 52%. Further, in the assay with Gli-Luc/MEF cells (Smo), the pIC50 was 6.79.

As to `Cn1cnnc1C1CCN(c2cc(-c3nc4ccccc4n3C)c(Cl)cn2)CC1` [Example A-132, 2-{5-chloro-2-[4-(4-methyl-4H-1,2,4-triazol-3-yl)piperidin-1-yl]pyridin-4-yl}-1-methyl-1H-benzimidazole], the inhibition at 0.05 µM in assay [1] worked out at 51%. In the assay with Gli-Luc/MEF cells (Smo), this molecule had a pIC50 of 6.70.

As to `COC(=O)N1CCN(c2cc(-c3nc4ccccc4n3C)ccn2)CC1` [Example A-141, methyl 4-[4-(1-methyl-1H-benzimidazol-2-yl)pyridin-2-yl]piperazine-1-carboxylate], the inhibition at 0.05 µM in assay [1] is 96%. For the same molecule, the pIC50 in assay [1] was 7.47; in the assay with Gli-Luc/MEF cells (Smo) it was 7.57.

As to `CNC(=O)N1CCN(c2cc(-c3nc4ccccc4n3C)ccn2)CC1` [Example A-144, N-methyl-4-[4-(1-methyl-1H-benzimidazol-2-yl)pyridin-2-yl]piperazine-1-carboxamide], in assay [1], the inhibition at 0.05 µM amounted to 78% and the pIC50 was 7.05. For the same molecule, the pIC50 in the assay on Gli-Luc/MEF cells (Smo) was 6.80.

With `CN(CCNS(C)(=O)=O)c1cc(-c2nc3ccccc3n2C)c(Cl)cn1` [Example A-145, N-(2-{[5-chloro-4-(1-methyl-1H-benzimidazol-2-yl)pyridin-2-yl](methyl)amino}ethyl)methanesulfonamide], in assay [1], the inhibition at 0.05 µM was 97% and the pIC50 was 7.66. In the assay on Gli-Luc/MEF cells (Smo), this molecule showed a pIC50 of 7.66.

For the molecule `Cn1c(-c2cc(N3C[C@H]4C[C@@H]3CN4S(C)(=O)=O)ncc2Cl)nc2ccccc21` [Example A-146, 2-{5-chloro-2-[(1R,4R)-5-(methylsulfonyl)-2,5-diazabicyclo[2.2.1]hept-2-yl]pyridin-4-yl}-1-methyl-1H-benzimidazole], in assay [1], the inhibition at 0.05 µM was 75% and the negative logarithm of the IC50 (pIC50) is 6.69. Moreover, the pIC50 in the assay with Gli-Luc/MEF cells (Smo) was 7.04.

As to `CCNC(=O)NC1CN(c2cc(-c3nc4ccccc4n3C)c(Cl)cn2)C1` [Example A-148, 1-{1-[5-chloro-4-(1-methyl-1H-benzimidazol-2-yl)pyridin-2-yl]azetidin-3-yl}-3-ethylurea], in assay [1], the inhibition at 0.05 µM came out at 95%. The pIC50 in assay [1] is 7.68; with Gli-Luc/MEF cells (Smo), 8.05.

`CN(C1CN(c2cc(-c3nc4ccccc4n3C)c(Cl)cn2)C1)S(C)(=O)=O` [Example A-149, N-{1-[5-chloro-4-(1-methyl-1H-benzimidazol-2-yl)pyridin-2-yl]azetidin-3-yl}-N-methylmethanesulfonamide]: in assay [1], the inhibition at 0.05 µM worked out at 95% and the pIC50 is 7.85. In the assay with Gli-Luc/MEF cells (Smo), the pIC50 was 8.10.

As to `COC(=O)N(C)C1CN(c2cc(-c3nc4ccccc4n3C)c(Cl)cn2)C1` [Example A-150, methyl {1-[5-chloro-4-(1-methyl-1H-benzimidazol-2-yl)pyridin-2-yl]azetidin-3-yl}methylcarbamate], in assay [1], the inhibition at 0.05 µM worked out at 87% and the pIC50 was 7.25. This molecule also showed a pIC50 in the assay on Gli-Luc/MEF cells (Smo) of 7.64.

Consider `CNC(=O)N(C)C1CN(c2cc(-c3nc4ccccc4n3C)c(Cl)cn2)C1` [Example A-151, 1-{1-[5-chloro-4-(1-methyl-1H-benzimidazol-2-yl)pyridin-2-yl]azetidin-3-yl}-1,3-dimethylurea], for which, in assay [1], the inhibition at 0.05 µM was found to be 83% and the pIC50 is 7.05. Besides, the pIC50 in the assay on Gli-Luc/MEF cells (Smo) was 7.59.

As for `COC(=O)NC1CCN(c2cc(-c3nc4ccccc4n3C)c(Cl)cn2)C1` (centres unmarked) [Example A-152, methyl {1-[5-chloro-4-(1-methyl-1H-benzimidazol-2-yl)pyridin-2-yl]pyrrolidin-3-yl}carbamate], in assay [1], the inhibition at 0.05 µM came out at 87%. Besides, the pIC50 in assay [1] is 7.16; in the assay with Gli-Luc/MEF cells (Smo), 7.68.

For `Cn1c(-c2cc(N3CCC(NS(C)(=O)=O)C3)ncc2Cl)nc2ccccc21` (centres unmarked) [Example A-153, N-{1-[5-chloro-4-(1-methyl-1H-benzimidazol-2-yl)pyridin-2-yl]pyrrolidin-3-yl}methanesulfonamide], in assay [1], the inhibition at 0.05 µM was determined as 93% and the pIC50 is 7.64. Besides, the pIC50 in the assay with Gli-Luc/MEF cells (Smo) is 7.82.

In the case of `CC(=O)N1CCCN(c2cc(-c3nc4ccccc4n3C)ccn2)CC1` [Example A-154, 2-[2-(4-acetyl-1,4-diazepan-1-yl)pyridin-4-yl]-1-methyl-1H-benzimidazole], in assay [1], the inhibition at 0.05 µM was 90% and the pIC50 was 7.48. Moreover, in the assay with Gli-Luc/MEF cells (Smo), the pIC50 is 7.70.

`CNC(=O)N1CCCN(c2cc(-c3nc4ccccc4n3C)ccn2)CC1` [Example A-155, N-methyl-4-[4-(1-methyl-1H-benzimidazol-2-yl)pyridin-2-yl]-1,4-diazepane-1-carboxamide]: the inhibition at 0.05 µM in assay [1] amounted to 97%. In addition, the values for the pIC50 (in assay [1]; with Gli-Luc/MEF cells (Smo)) were 7.66 and 7.92, respectively.

`COC(=O)N1CCCN(c2cc(-c3nc4ccccc4n3C)ccn2)CC1` [Example A-156, methyl 4-[4-(1-methyl-1H-benzimidazol-2-yl)pyridin-2-yl]-1,4-diazepane-1-carboxylate]: in assay [1], the inhibition at 0.05 µM was 95% and the pIC50 was 7.64. This molecule also had a pIC50 in the assay on Gli-Luc/MEF cells (Smo) of 7.96.

For `C[C@@H]1CN(c2cc(-c3nc4ccccc4n3C)c(Cl)cn2)CCN1` [Example A-157, 2-{5-chloro-2-[(3R)-3-methylpiperazin-1-yl]pyridin-4-yl}-1-methyl-1H-benzimidazole], in assay [1], the inhibition at 0.05 µM was determined as 95% and the pIC50 was 7.46. This molecule also showed a pIC50 in the assay on Gli-Luc/MEF cells (Smo) of 7.62.
